Molecules are shown by their SMILES.

This note sets out measurements from US8231858B2, “Diagnostic imaging agents with MMP inhibitory activity” (GE Healthcare Limited, priority 2003, dated 2012).

One series has as its target T1, MMP-2 (Homo sapiens, UniProt P08253).
T1 sequence (P08253 110-660): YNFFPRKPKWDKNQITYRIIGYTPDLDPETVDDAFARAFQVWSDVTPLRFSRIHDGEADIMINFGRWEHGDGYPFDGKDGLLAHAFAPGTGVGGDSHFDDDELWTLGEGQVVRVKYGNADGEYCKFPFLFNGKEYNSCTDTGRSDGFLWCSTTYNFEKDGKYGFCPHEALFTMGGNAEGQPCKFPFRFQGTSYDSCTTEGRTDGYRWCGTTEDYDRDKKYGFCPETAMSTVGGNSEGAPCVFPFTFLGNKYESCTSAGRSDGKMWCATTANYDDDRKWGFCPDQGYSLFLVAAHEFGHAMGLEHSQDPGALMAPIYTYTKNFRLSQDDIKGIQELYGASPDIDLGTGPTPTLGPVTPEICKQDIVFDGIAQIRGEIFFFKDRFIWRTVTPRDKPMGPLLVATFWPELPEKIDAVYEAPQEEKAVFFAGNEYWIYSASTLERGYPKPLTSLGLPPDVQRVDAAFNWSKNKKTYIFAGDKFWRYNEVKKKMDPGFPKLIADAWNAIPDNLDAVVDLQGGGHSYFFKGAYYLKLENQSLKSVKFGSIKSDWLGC
Nature of the series: Assay for MMP-2 inhibitory activity (fluorogenic substrate). Format: biochemical. As to conditions: MMP-2 1 nM, preincubation 37° C. for 30 min, pH 7.5. Here is the method:
(§1) The synthetic broad-spectrum fluorogenic substrate (7-methoxycoumarin-4-yl) acetyl pro-Leu-Gly-Leu-(3-(2,4-dinitrophenyl)-L-2,3-diamino-propionyl)-Ala-Arg-NH2 (R & D Systems) was used to assay MMP-2 and MMP-9 activity as described previously [Huang et al J. Biol. Chem. 272 22086-22091 (1997)]. […] An aliquot (10 μl) of substrate (5 μM) was then added to […] of preincubated MMP/compound mixture, and activity was determined at 37° C. by following product release with time. The fluorescence changes were monitored using a Fusion Universal Microplate Analyzer (Packard Bioscience) with excitation and emission wavelengths set to 330 and 390 nm, respectively for MMP-2 and MMP-9. Inhibited rates were measured from the initial 10 min of the reaction profile where product release was linear with time. Nonlinear regression analysis was performed using the XMGRACE 5.18 software under linux.

A further series deals with MMP-9 (Homo sapiens, UniProt P14780). Nature of the series: Assay for MMP-9 inhibitory activity (fluorogenic substrate). Format: biochemical. As to conditions: MMP-9 2 nM, preincubation 37° C. for 30 min, pH 7.5. Here is the method: as §1
Chain of MMP-9 (P14780 94-707, species assumed): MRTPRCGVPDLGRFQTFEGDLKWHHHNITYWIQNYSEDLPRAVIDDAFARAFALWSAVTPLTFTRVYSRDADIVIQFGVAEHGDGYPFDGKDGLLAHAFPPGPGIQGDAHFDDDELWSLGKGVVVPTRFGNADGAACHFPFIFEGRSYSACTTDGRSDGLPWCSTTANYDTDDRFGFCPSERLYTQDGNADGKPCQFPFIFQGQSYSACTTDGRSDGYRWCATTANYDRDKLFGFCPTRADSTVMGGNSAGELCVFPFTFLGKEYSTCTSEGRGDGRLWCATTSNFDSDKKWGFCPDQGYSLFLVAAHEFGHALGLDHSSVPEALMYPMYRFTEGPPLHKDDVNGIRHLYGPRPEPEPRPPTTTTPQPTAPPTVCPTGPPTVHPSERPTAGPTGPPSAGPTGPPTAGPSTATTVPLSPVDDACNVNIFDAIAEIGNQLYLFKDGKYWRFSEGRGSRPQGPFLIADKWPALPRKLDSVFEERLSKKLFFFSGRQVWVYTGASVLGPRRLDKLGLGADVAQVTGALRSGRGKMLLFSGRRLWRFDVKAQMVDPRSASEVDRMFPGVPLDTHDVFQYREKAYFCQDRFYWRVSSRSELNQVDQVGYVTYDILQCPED

Molecule `CC(C)[C@H](C(=O)NO)N(Cc1cccnc1)S(=O)(=O)c1ccc(O)c(I)c1` [Compound 8] displayed a melting point of 201 to 203 °C. For the same molecule, the IC50 against MMP-2 came out at 320 nM. Inhibition on MMP-9 was half-maximal at 153 nM (IC50).
Molecule `CC(C)C(C(=O)NO)N(Cc1cccnc1)S(=O)(=O)c1ccc(I)cc1` (centres unmarked) [Compound 9] gave a melting point of 169 °C. Moreover, the 50% inhibitory concentration (IC50) against MMP-2 was 2.5 nM. The molecule further came in with an IC50 against MMP-9 of 4.6 nM.
Consider `CC(C)[C@H](C(=O)NO)N(Cc1cccnc1)S(=O)(=O)c1ccc(O)cc1` [Compound 13], for which the figures for the IC50 at MMP-2 and on MMP-9 were 57.5 nM and 257 nM, respectively.
In turn, `CC(C)[C@H](C(=O)NO)N(Cc1cccnc1)S(=O)(=O)c1ccc(Br)cc1` [Compound 14] registered a melting point of 169 to 170 °C. The molecule further displayed an IC50 at MMP-2 of 16.2 nM. Moreover, the IC50 against MMP-9 was 76 nM.
